# Measurements from patent publication US11214594B2, “Antimicrobial peptide having synergistic antibacterial effect with antibiotics on multidrug resistant bacteria, and use thereof” (priority 2016, dated 2022).
# Where two headings read alike, the source gives them in different places. Where a SMILES comes first, the peptide text is derived from it.
# What was measured:
# MDRAB 12035 [1] = experiment: MIC of antibiotic during combined treatment with antimicrobial peptide; format: cell-based, Acinetobacter baumannii
# Outline: (§1)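 Antibiotic MIC came from antibiotic dilutions added to bacteria (2×10^6 CFU/ml, MH medium) already combined with peptide serially diluted 2:1 from its own MIC. Swapping the roles of the two agents gave the peptide MIC.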
# P. aeruginosa = experiment: microbe, parasite or virus in culture; format: cell-based, Pseudomonas aeruginosa
# Outline: (§2)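 Each strain is brought to 2×10^6 CFU in nutrient-sufficient Mueller-Hinton medium and dispensed into wells. Peptide solutions, stepwise diluted 2:1 in the same medium, are then added. The minimal concentration preventing growth gives the MIC.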
# MDRAB 12035 [2] = experiment: MIC of antimicrobial peptide during combined treatment with antibiotic; format: cell-based, Acinetobacter baumannii
# Outline: as §1
# A. baumannii [3] = experiment: as above; format: cell-based, Acinetobacter baumannii
# Outline: as §1
# S. epidermidis = experiment: microbe, parasite or virus in culture; format: cell-based, Staphylococcus epidermidis
# Outline: as §2
# MDRAB 12035 [4] = experiment: microbe, parasite or virus in culture; format: cell-based, Acinetobacter baumannii
# Outline: as §2
# A. baumannii [5] = experiment: microbe, parasite or virus in culture; format: cell-based, Acinetobacter baumannii
# Outline: as §2
# MDREC 1229 = format: cell-based, Escherichia coli
# Outline: as §1
# E. coli = format: cell-based, Escherichia coli; settings: E. coli
# Outline: as §1
# [6] = peptide treatment concentration 6 μg/ml
# [7] = peptide treatment concentration 8 μg/ml
# [8] = peptide treatment concentration 16 μg/ml
# [9] = peptide treatment concentration 32 μg/ml
# [10] = peptide treatment concentration 64 μg/ml
# [11] = erythromycin 4 μg/ml (Conc./MIC 1/8)
# [12] = erythromycin 8 μg/ml (Conc./MIC 1/4)
# [13] = erythromycin 16 μg/ml (Conc./MIC 1/2)
# [14] = erythromycin 32 μg/ml (Conc./MIC 1)
# [15] = linezolid 64 μg/ml (Conc./MIC 1/8)
# [16] = linezolid 512 μg/ml (Conc./MIC 1)
# [17] = vancomycin 512 μg/ml (Conc./MIC 1/2)
# [18] = vancomycin 1024 μg/ml (Conc./MIC 1)
compound,measurement,setting,value
"CC[C@H](C)[C@H](NC(=O)[C@H](CCCCN)NC(=O)[C@H](Cc1c[nH]c2ccccc12)NC(=O)[C@@H](N)CCCNC(=N)N)C(=O)N[C@@H](Cc1ccccc1)C(=O)N[C@@H](CCCCN)C(=O)N[C@@H](CCCCN)C(=O)N[C@H](C(=O)N1CCC[C@H]1C(=O)N[C@@H](CCCCN)C(=O)N[C@@H](CC(C)C)C(=O)N[C@@H](CC(C)C)C(=O)N[C@@H](Cc1c[nH]cn1)C(=O)N[C@@H](CCC(=O)O)C(=O)N[C@@H](C)C(=O)N[C@@H](CCCCN)C(=O)N[C@@H](CCCCN)C(=O)N[C@@H](Cc1c[nH]c2ccccc12)C(N)=O)[C@@H](C)CC [PapMA-13, RWK IFK KIP KLL HEA KKW-NH2] (H-RWKIFKKIPKLLHEAKKW-NH2; N-terminus assumed)",Erythromycin MIC during combined treatment with peptide,MDRAB 12035 [1]; [6],1 µg/mL
same,Linezolid MIC during combined treatment with peptide,MDRAB 12035 [1]; [6],8 µg/mL
same,Vancomycin MIC during combined treatment with peptide,MDRAB 12035 [1]; [6],2 µg/mL
same,Erythromycin MIC during combined treatment with peptide,MDRAB 12035 [1]; [7],0.5 µg/mL
same,Linezolid MIC during combined treatment with peptide,MDRAB 12035 [1]; [7],2 µg/mL
same,Vancomycin MIC during combined treatment with peptide,MDRAB 12035 [1]; [7],1 µg/mL
same,Erythromycin MIC during combined treatment with peptide,MDRAB 12035 [1]; [8],0 µg/mL
same,Linezolid MIC during combined treatment with peptide,MDRAB 12035 [1]; [8],0 µg/mL
same,Vancomycin MIC during combined treatment with peptide,MDRAB 12035 [1]; [8],0 µg/mL
same,Erythromycin MIC during combined treatment with peptide,MDRAB 12035 [1]; [9],0 µg/mL
same,Linezolid MIC during combined treatment with peptide,MDRAB 12035 [1]; [9],0 µg/mL
same,Vancomycin MIC during combined treatment with peptide,MDRAB 12035 [1]; [9],0 µg/mL
same,Erythromycin MIC during combined treatment with peptide,MDRAB 12035 [1]; [10],0 µg/mL
same,Linezolid MIC during combined treatment with peptide,MDRAB 12035 [1]; [10],0 µg/mL
same,Vancomycin MIC during combined treatment with peptide,MDRAB 12035 [1]; [10],0 µg/mL
same,Minimal inhibitory concentration MIC,P. aeruginosa,128 µg/mL
same,Peptide MIC during treatment with erythromycin,MDRAB 12035 [2]; [11],4 µg/mL
same,Peptide MIC during treatment with erythromycin,MDRAB 12035 [2]; [12],2 µg/mL
same,Peptide MIC during treatment with erythromycin,MDRAB 12035 [2]; [13],1 µg/mL
same,Peptide MIC during treatment with erythromycin,MDRAB 12035 [2]; [14],0 µg/mL
same,Peptide MIC during treatment with linezolid,MDRAB 12035 [2]; [15],2 µg/mL
same,Peptide MIC during treatment with linezolid,MDRAB 12035 [2]; [16],0 µg/mL
same,Peptide MIC during treatment with linezolid,MDRAB 12035 [2]; linezolid […] (Conc./MIC 1/2),1 µg/mL
same,Peptide MIC during treatment with linezolid,MDRAB 12035 [2]; linezolid […] (Conc./MIC 1/4),1 µg/mL
same,Peptide MIC during treatment with vancomycin,MDRAB 12035 [2]; [17],1 µg/mL
same,Peptide MIC during treatment with vancomycin,MDRAB 12035 [2]; [18],1 µg/mL
same,Peptide MIC during treatment with vancomycin,MDRAB 12035 [2]; vancomycin […] (Conc./MIC 1/4),1 µg/mL
same,Peptide MIC during treatment with vancomycin,MDRAB 12035 [2]; vancomycin […] (Conc./MIC 1/8),2 µg/mL
same,Peptide MIC during treatment with antibiotic,A. baumannii [3]; [11],4 µg/mL
same,Peptide MIC during treatment with antibiotic,A. baumannii [3]; [12],2 µg/mL
same,Peptide MIC during treatment with antibiotic,A. baumannii [3]; [13],1 µg/mL
same,Peptide MIC during treatment with antibiotic,A. baumannii [3]; [14],0 µg/mL
same,Peptide MIC during treatment with antibiotic,A. baumannii [3]; linezolid 32 μg/ml (Conc./MIC 1/8),2 µg/mL
same,Peptide MIC during treatment with antibiotic,A. baumannii [3]; linezolid 64 μg/ml (Conc./MIC 1/4),2 µg/mL
same,Peptide MIC during treatment with antibiotic,A. baumannii [3]; linezolid […] (Conc./MIC 1),0 µg/mL
same,Peptide MIC during treatment with antibiotic,A. baumannii [3]; linezolid […] (Conc./MIC 1/2),1 µg/mL
same,Peptide MIC during treatment with antibiotic,A. baumannii [3]; [17],0.25 µg/mL
same,Peptide MIC during treatment with antibiotic,A. baumannii [3]; [18],0 µg/mL
same,Peptide MIC during treatment with antibiotic,A. baumannii [3]; vancomycin […] (Conc./MIC 1/4),0.25 µg/mL
same,Peptide MIC during treatment with antibiotic,A. baumannii [3]; vancomycin […] (Conc./MIC 1/8),1 µg/mL
same,Minimal inhibitory concentration MIC,S. epidermidis,>128 µg/mL
same,Minimal inhibitory concentration MIC,MDRAB 12035 [4],16 µg/mL
same,"Peptide MIC, peptide alone",MDRAB 12035 [4],16 µg/mL
same,Minimal inhibitory concentration MIC,A. baumannii [5],16 µg/mL
same,"Peptide MIC, peptide alone",A. baumannii [5],16 µg/mL
same,Antibacterial activity relative to PapMA-1,A. baumannii [5]; A. baumannii and S. typhimurium,at least twice as high
same,Peptide MIC during treatment with antibiotic,MDREC 1229; erythromycin 32 μg/ml (Conc./MIC 1/8),2 µg/mL
same,Peptide MIC during treatment with antibiotic,MDREC 1229; erythromycin 64 μg/ml (Conc./MIC 1/4),2 µg/mL
same,Peptide MIC during treatment with antibiotic,MDREC 1229; erythromycin […] (Conc./MIC 1),0 µg/mL
same,Peptide MIC during treatment with antibiotic,MDREC 1229; erythromycin […] (Conc./MIC 1/2),2 µg/mL
same,Peptide MIC during treatment with antibiotic,MDREC 1229; [15],4 µg/mL
same,Peptide MIC during treatment with antibiotic,MDREC 1229; [16],0 µg/mL
same,Peptide MIC during treatment with antibiotic,MDREC 1229; linezolid […] (Conc./MIC 1/2),2 µg/mL
same,Peptide MIC during treatment with antibiotic,MDREC 1229; linezolid […] (Conc./MIC 1/4),2 µg/mL
same,Peptide MIC during treatment with antibiotic,MDREC 1229; [17],2 µg/mL
same,Peptide MIC during treatment with antibiotic,MDREC 1229; [18],1 µg/mL
same,Peptide MIC during treatment with antibiotic,MDREC 1229; vancomycin […] (Conc./MIC 1/4),4 µg/mL
same,Peptide MIC during treatment with antibiotic,MDREC 1229; vancomycin […] (Conc./MIC 1/8),8 µg/mL
same,Peptide MIC,E. coli; with Erythromycin […] (Conc./MIC 1),0 µg/mL
same,Peptide MIC,E. coli; with Linezolid […] (Conc./MIC 1),0 µg/mL
same,Peptide MIC,E. coli; with Vancomycin 1024 μg/ml (Conc./MIC 1),0 µg/mL
